Reference: patent US20170100353A1, “COMPOSITIONS AND METHODS THAT TARGET OLFACTORY RECEPTORS FOR REGULATION OF BREATHING” (The Board of Trustees of the Leland Stanford Junio, priority 2015, published 2017)
pEC50: −log10 of the molar value. Like-named read-outs stand apart in the source and are kept apart here.

Key:
OR51E1 [1] = target: T1, OR51E1 (Homo sapiens, UniProt Q8TCB6); settings: another study and a more recent study; cited from earlier work
T1 sequence (Q8TCB6 1-318): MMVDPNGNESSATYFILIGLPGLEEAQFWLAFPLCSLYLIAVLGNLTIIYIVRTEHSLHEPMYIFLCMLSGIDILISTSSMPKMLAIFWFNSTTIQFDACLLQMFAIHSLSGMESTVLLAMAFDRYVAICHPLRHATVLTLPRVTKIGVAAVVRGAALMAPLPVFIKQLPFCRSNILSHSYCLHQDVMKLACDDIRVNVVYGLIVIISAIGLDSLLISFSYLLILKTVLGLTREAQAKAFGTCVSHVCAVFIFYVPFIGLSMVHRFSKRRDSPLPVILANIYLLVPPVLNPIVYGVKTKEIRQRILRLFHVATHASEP

Olfr78 [2] = target: T2, Olfr78 (Mus musculus, UniProt Q8VBV9); assay: Luciferase dual reporter assay of Olfr78 expressed in HEK293T cells; assay type: cell-based
T2 construct: host or cells: HEK293T
T2 sequence (Q8VBV9 1-320): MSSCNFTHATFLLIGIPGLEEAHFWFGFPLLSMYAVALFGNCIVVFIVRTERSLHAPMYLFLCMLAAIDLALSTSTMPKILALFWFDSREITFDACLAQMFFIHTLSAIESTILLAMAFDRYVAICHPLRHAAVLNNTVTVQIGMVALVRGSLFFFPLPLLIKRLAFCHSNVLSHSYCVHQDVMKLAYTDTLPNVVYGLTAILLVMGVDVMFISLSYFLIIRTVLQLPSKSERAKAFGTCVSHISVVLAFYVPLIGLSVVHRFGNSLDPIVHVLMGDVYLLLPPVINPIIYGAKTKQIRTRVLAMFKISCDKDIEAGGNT
From the text: pCl-Rho-Olfr78 plasmid construction and expression. The pCl-Rho-Olfr78 plasmid was made by PCR amplifying the Olfr78 coding region from a pCMV6-Olfr78 plasmid (OriGene) using forward primer 5′-[…]-3′ and reverse primer 5′-[…]-3′, adding EcoR1 and Not1 restriction sites. The Olfr78 PCR fragment was then digested with EcoR1 and Not1 and cloned into a pCl-Rho backbone cut from a pCl-Rho-Olfr62 plasmid (gift of Hiroaki Matsunami, Duke University). […] Cytoplasmic GFP (co-transfection marker) was expressed from a TBC1 D25::eGFP plasmid (gift of Suzanne Pfeffer, Stanford University).
Luciferase assay. HEK293T cells were grown and seeded into 96 well plates. On the next day, cells were transfected with RTP1S, Gα15-olf (gifts of Hiroaki Matsunami, Duke University), pCMV6-Ric8b (Origene), pCRE-Luc (Agilent), and pSV40-RL (Promega) plasmids and either pCl-Rho-Olfr78 or pCl (Promega). The Rho tag on Olfr78 and RTP1S were used to enhance localization of Olfr78 to the plasma membrane. Gα15-olf and Ric8b were included as downstream effectors that couple to ORs to increase cAMP production upon OR activation. Two transcriptional luciferase reporters, one constitutive (Renilla, pSV40-RL) and one inducible by cAMP (firefly, pCRE-Luc) were transfected to report increased cAMP levels upon OR activation.
Five hours after transfection, media was decanted and replaced with 50 μL/well MEM without phenol red (Life Technologies). After thirty minutes, 25 μL of chemicals were added to each well to achieve the indicated final concentrations, and cells were incubated for 2 hours. Sodium salts of chloride, L-lactate, propionate, and acetate (Sigma) were used.
Reagents to detect firefly and Renilla luciferase activity (Dual-Glo Luciferase Assay System, Promega) were added at 20 μl/well. Luminescence was measured using an Infinite M1000 (Tecan) microplate reader and data acquired by Magellan Data Analysis Software (Tecan). Two readings were collected for each plate and luciferase reagent, and firefly to Renilla ratios were averaged. Data was from experiments conducted over three days. For dose response curves in FIG. 4a and FIGS. 11d-f, ratios were normalized to the highest and lowest average values for a given condition across all plates on each day.
Data analysis and statistics. Data analysis and statistical tests were performed using Microsoft Excel and GraphPad software. GraphPad Prism 6 was used to fit dose-response curves using a variable slope model and to calculate EC50 values. All data are biological replicates, and quantitative data with error bars are presented as mean±standard error of the mean (s.e.m.) with the exception of FIG. 11c, which is presented as percent±standard error of percentage. […] No statistical method was used to predetermine sample size.

Olfr558 = Olfr558 (Mus musculus, UniProt Q8VGZ7); settings: screen of 93 named compounds; cited from earlier work
Chain of Olfr558 (Q8VGZ7 entry or part of it): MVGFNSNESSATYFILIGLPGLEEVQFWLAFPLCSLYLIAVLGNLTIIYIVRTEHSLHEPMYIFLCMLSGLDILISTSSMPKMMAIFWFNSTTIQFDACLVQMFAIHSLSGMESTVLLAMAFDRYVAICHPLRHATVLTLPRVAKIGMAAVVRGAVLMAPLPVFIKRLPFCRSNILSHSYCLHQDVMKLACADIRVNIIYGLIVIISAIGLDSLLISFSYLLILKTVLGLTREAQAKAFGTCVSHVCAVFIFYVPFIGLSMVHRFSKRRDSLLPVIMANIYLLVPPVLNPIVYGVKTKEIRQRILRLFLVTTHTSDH

OR51E1 [3] = target: T1, OR51E1; settings: screen of 93 named compounds; cited from earlier work
OR51E2 [4] = target: T3, OR51E2 (Homo sapiens, UniProt Q9H255); settings: cited from earlier work
T3 construct: host or cells: HEK293T
T3 sequence (Q9H255 1-320): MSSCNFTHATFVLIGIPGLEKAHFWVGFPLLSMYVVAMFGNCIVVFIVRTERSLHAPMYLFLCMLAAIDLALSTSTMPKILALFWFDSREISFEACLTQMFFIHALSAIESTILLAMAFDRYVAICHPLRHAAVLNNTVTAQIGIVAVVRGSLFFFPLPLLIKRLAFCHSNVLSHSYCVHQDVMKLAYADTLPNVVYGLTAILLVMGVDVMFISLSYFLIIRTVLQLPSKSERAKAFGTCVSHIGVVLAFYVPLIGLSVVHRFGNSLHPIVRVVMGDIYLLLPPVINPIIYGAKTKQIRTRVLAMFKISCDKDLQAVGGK

carotid body = assay: Carotid sinus nerve recordings (carotid body sensory activity); design: species or system mouse; settings: 30 mM, PO2=625 mmHg; for Carotid sinus nerve activity, Olfr78-/- mutants: Olfr78-/- mutant nerves; for Carotid sinus nerve activity, Olfr78+/+: wild-type Olfr78+/+ preparations
Olfr78 [5] = target: T2, Olfr78; settings: cited from earlier work
[6] = tested on: carotid body glomus cells; assay: Calcium imaging of GCaMP3-expressing carotid body glomus cells; assay type: cell-based, mouse; settings: lactate 30 mM, cyanide 2 mM; whole carotid bodies and slice preparations; hyperoxia
OR51E2 [7] = target: T3, OR51E2; settings: screen of 93 named compounds; cited from earlier work
[8] = heterologous expression in HEK293T cells, same range of concentrations
[9] = study looking at Olfr78 and OR51E2

SMILES	Agonist activity at OR51E1 (OR51E1 [1])	Activation of Olfr78 (in words) (Olfr78 [2]; [8])	Carotid sinus nerve activity, Olfr78-/- mutants (carotid body)	Carotid sinus nerve activity, Olfr78+/+ (carotid body)	also measured
CC(C)CCC(=O)O [4-methyl-valeric acid]	agonists	–	–	–	–
Cl [Chloride ion, chloride]	–	–	–	–	Activation of Olfr78 (in words) (Olfr78 [2]): no effect
CC(C)CC(=O)O [isovaleric acid]	activated	–	–	–	–
CCC(C)CC(=O)O (stereo not drawn) [3-methyl-valeric acid]	agonists	–	–	–	–
CCCCCCCCC(=O)O [nonanoic acid]	activated	–	–	–	Agonist activity at Olfr558 in chemical screen (Olfr558): activated; Agonist activity at OR51E1 in chemical screen (OR51E1 [3]): activated
CC(=O)O [acetate]	–	stimulated Olfr78	little effect	stimulate carotid sinus nerve activity	Agonist activity at OR51E2 (OR51E2 [4]; [9]): agonists; Agonist activity at Olfr78 (Olfr78 [5]; [9]): agonists
CCCCOC(=O)C(C)OC(=O)CCC (stereo not drawn) [butyl butylryllactate]	–	–	–	–	Agonist activity at OR51E1 in chemical screen (OR51E1 [3]): activated
O=CO [formate]	–	–	–	–	Agonist activity at OR51E2 (OR51E2 [4]): not; Agonist activity at Olfr78 (Olfr78 [5]): not
CC(O)C(=O)O (stereo not drawn) [lactate, 2-hydroxypropanoic acid]	–	activated Olfr78 in a dose-dependent manner	little response	increased carotid sinus nerve activity	pEC50 (Olfr78 [2]; heterologous expression in HEK293T cells, sodium salts, 2 hours stimulation, read-out: EC50 for activation of Olfr78): 2.40; Calcium response of glomus cells [6]: induced calcium transients
CCC(=O)O [propionate, propionic acid]	activated	stimulated Olfr78	little effect	stimulate carotid sinus nerve activity	Agonist activity at OR51E2 (OR51E2 [4]; [9]): agonists; Agonist activity at OR51E2 in chemical screen (OR51E2 [7]): specifically activated; Agonist activity at Olfr78 (Olfr78 [5]; [9]): agonists
